Results on one compound are retold here after ChEMBL document CHEMBL1671688, “Raltegravir penetration in seminal plasma of healthy volunteers” (Antimicrob Agents Chemother, 2010).

Common to all, as to type: ADME, organism-based
A short description of data set [1]: Drug level in semen of healthy human at […] administered twice daily measured after 2 to 4 hrs by HPLC. The following applies: in vivo.
Data set [2] relates to Blood. In words: Drug level in blood of healthy human at […] administered twice daily measured after 2 to 4 hrs by HPLC. The conditions noted are these: in vivo.
The nature of data set [3]: Drug level in semen of healthy human at […] administered twice daily measured 5 hrs post dosing by HPLC. The conditions noted are these: male, read-out: Drug uptake.
Data set [4] can be described thus: Ratio of drug level in semen to blood in healthy human at […] administered twice daily measured after 2 to 4 hrs by HPLC. The conditions noted are these: male.
Data set [5] is described as follows: Ratio of drug level in semen to blood in healthy human at […] administered twice daily measured 5 hrs post dosing by HPLC. The following applies: male.
Data set [6] in a line: Ratio of drug level in semen to blood in healthy human at […] administered twice daily measured on day 5 by HPLC. The conditions noted are these: male.
Data set [7] in a line: Drug level in blood of healthy human at […] administered twice daily measured on day 5 by HPLC. The conditions noted are these: read-out: Drug uptake.
The nature of data set [8]: Drug level in semen of healthy human at […] administered twice daily measured on day 5 by HPLC. The conditions noted are these: male, read-out: Drug uptake.

Broadly, the Kp is the ratio of the level in a tissue or fluid to that in plasma or blood. With `Cc1nnc(C(=O)NC(C)(C)c2nc(C(=O)NCc3ccc(F)cc3)c(O)c(=O)n2C)o1` [RALTEGRAVIR], the Drug uptake in data set [1] was 953 ng/mL; in data set [2], 651 ng/mL. Further, the concentration at 5 h in data set [3] was determined as 345 ng/mL. In addition, the concentration ratio (Kp) in data set [4] came out at 1.62. Also, in data set [5], the partition ratio (Kp) at 5 h was 1.42. Besides, the Kp at 5 day in data set [6] was found to be 3.78. Besides, the concentration at 5 day in data set [7] was found to be 51 ng/mL; in data set [8], 212 ng/mL.
